One block for each compound: values may come before it.
Key:
[1] = intrinsic clearance in human liver microsome preparations; format: in vitro ADME; details: in the presence of human liver microsomes; R1=2-amino-4-pyridyl, R2=vinyl
[2] = system: Staphylococcus aureus Oxford; assay: conventional MIC assay, Staphylococcus aureus Oxford; format: cell-based
Experimental: (§1) Compounds of the present invention were assessed for anti-bacterial activity in a conventional MIC assay against a range of pathogenic organisms.

[3] = system: Haemophilius influenzae Q1; assay: conventional MIC assay, Haemophilius influenzae Q1; format: cell-based
Experimental: as §1

[4] = system: Streptococcus pneumoniae 1629; assay: conventional MIC assay, Streptococcus pneumoniae 1629; format: cell-based
Experimental: as §1

[5] = system: Moraxella catarrhalis Ravasio; assay: conventional MIC assay, Moraxella catarrhalis Ravasio; format: cell-based
Experimental: as §1

SMILES: C=C[C@]1(C)C[C@@H](OC(=O)NC(=O)c2ccc(N)nc2)[C@]2(C)C(C)CC[C@]3(C[C@H](O)C(=O)C32)[C@@H](C)[C@@H]1O (stereo partly shown) [Example 1]
- MIC [2]: ≤ 4 µg/mL
- MIC [3]: ≤ 4 µg/mL
- MIC [4]: ≤ 4 µg/mL
- MIC [5]: ≤ 4 µg/mL

SMILES: C=C[C@]1(C)C[C@@H](OC(=O)NC(=O)c2cnc(N)c([N+](=O)[O-])c2)[C@]2(C)C(C)CC[C@]3(C[C@H](O)C(=O)C32)[C@@H](C)[C@@H]1O (stereo partly drawn) [Example 22, (6-Amino-5-nitronicotinoyl)carbamic Acid 2-(S)-hydroxymutilin 14-ester]
- MIC [2]: ≤ 4 µg/mL
- MIC [3]: ≤ 4 µg/mL
- MIC [4]: ≤ 4 µg/mL
- MIC [5]: ≤ 4 µg/mL

SMILES: C=C[C@]1(C)C[C@@H](OC(=O)NC(=O)c2cc(OC)nc(N)n2)[C@]2(C)C(C)CC[C@]3(C[C@H](O)C(=O)C32)[C@@H](C)[C@@H]1O (stereo partly drawn) [Example 23, (2-Amino-6-methoxypyrimidin-4-ylcarbonyl)carbamic Acid 2-(S)-hydroxymutilin 14-ester]
- MIC [2]: ≤ 4 µg/mL
- MIC [3]: ≤ 4 µg/mL
- MIC [4]: ≤ 4 µg/mL
- MIC [5]: ≤ 4 µg/mL

SMILES: CC[C@]1(C)CC(OC(=O)NC(=O)c2ccc(N)nc2)[C@]2(C)C(C)CC[C@]3(C[C@H](O)C(=O)C23)[C@@H](C)[C@@H]1O (stereo partly drawn) [Example 39, (6-Aminonicotinoyl)carbamic Acid 19,20-dihydro-2-(S)-hydroxymutilin 14-ester]
- MIC [2]: ≤ 4 µg/mL
- MIC [3]: ≤ 4 µg/mL
- MIC [4]: ≤ 4 µg/mL
- MIC [5]: ≤ 4 µg/mL

SMILES: C=C[C@]1(C)C[C@@H](OC(=O)NC(=O)c2ccc(N)nn2)[C@]2(C)C(C)CC[C@]3(C[C@H](O)C(=O)C32)[C@@H](C)[C@@H]1O.Cl (stereo partly drawn) [Example 27, (3-Amino-6-pyridazinylcarbonyl)carbamic Acid 2-(S)-hydroxymutilin 14-ester Hydrochloride]
- MIC [2]: ≤ 4 µg/mL
- MIC [3]: ≤ 4 µg/mL
- MIC [4]: ≤ 4 µg/mL
- MIC [5]: ≤ 4 µg/mL

SMILES: CC[C@]1(C)CC(OC(=O)NC(=O)c2cnc3[nH]c(=O)cnc3c2)[C@]2(C)C(C)CC[C@]3(C[C@H](O)C(=O)C23)[C@@H](C)[C@@H]1O (stereo partly drawn) [Example 34, (3-Oxo-3,4-dihydropyrido[2,3-b]pyrazin-7-ylcarbonyl)carbamic Acid 19,20-dihydro-2-(S)-hydroxymutilin 14-ester]
- MIC [2]: ≤ 4 µg/mL
- MIC [3]: ≤ 4 µg/mL
- MIC [4]: ≤ 4 µg/mL
- MIC [5]: ≤ 4 µg/mL

SMILES: C=C[C@]1(C)C[C@@H](OC(=O)NC(=O)c2csc(C3CCN(CC(N)=O)CC3)n2)[C@]2(C)C(C)CC[C@]3(C[C@H](O)C(=O)C32)[C@@H](C)[C@@H]1O (stereo partly drawn) [Example 30, [2-(1-Carboxamidomethylpiperidin-4-yl)thiazole-4-carbonyl]carbamic Acid 2-(S)-hydroxymutilin 14-ester]
- MIC [2]: ≤ 4 µg/mL
- MIC [3]: ≤ 4 µg/mL
- MIC [4]: ≤ 4 µg/mL
- MIC [5]: ≤ 4 µg/mL

SMILES: CC[C@]1(C)CC(OC(=O)NC(=O)c2cnc(NC)nc2)[C@]2(C)C(C)CC[C@]3(C[C@H](O)C(=O)C23)[C@@H](C)[C@@H]1O (stereo partly drawn) [Example 37, (2-Methylaminopyrimidin-5-ylcarbonyl)carbamic Acid 19,20-dihydro-2-(S)-hydroxymutilin 14-ester]
- MIC [2]: ≤ 4 µg/mL
- MIC [3]: ≤ 4 µg/mL
- MIC [4]: ≤ 4 µg/mL
- MIC [5]: ≤ 4 µg/mL

The next lines start with the values.

- intrinsic clearance (CLi, a measure of rate of metabolism) [1]: 6.5 ml/min/g liver
SMILES: C=C[C@]1(C)C[C@@H](OC(=O)NC(=O)c2ccnc(N)c2)[C@]2(C)C(C)CC[C@]3(C[C@H](O)C(=O)C32)[C@@H](C)[C@@H]1O (stereo partly shown) [Example 2]

- MIC [2]: ≤ 4 µg/mL
- MIC [3]: ≤ 4 µg/mL
- MIC [4]: ≤ 4 µg/mL
- MIC [5]: ≤ 4 µg/mL
SMILES: CC[C@]1(C)CC(OC(=O)NC(=O)c2cnc(OC)c(N)c2)[C@]2(C)C(C)CC[C@]3(C[C@H](O)C(=O)C23)[C@@H](C)[C@@H]1O (stereo partly drawn) [Example 36, (5-Amino-6-methoxynicotinoyl)carbamic Acid 19,20-dihydro-2-(S)-hydroxymutilin 14-ester]

- MIC [2]: ≤ 4 µg/mL
- MIC [3]: ≤ 4 µg/mL
- MIC [4]: ≤ 4 µg/mL
- MIC [5]: ≤ 4 µg/mL
SMILES: CC[C@]1(C)CC(OC(=O)NC(=O)c2cnc(OC)nc2)[C@]2(C)C(C)CC[C@]3(C[C@H](O)C(=O)C23)[C@@H](C)[C@@H]1O (stereo partly drawn) [Example 38, (2-Methoxypyrimidin-5-ylcarbonyl)carbamic Acid 19,20-dihydro-2-(S)-hydroxymutilin 14-ester]

- MIC [2]: ≤ 4 µg/mL
- MIC [3]: ≤ 4 µg/mL
- MIC [4]: ≤ 4 µg/mL
- MIC [5]: ≤ 4 µg/mL
SMILES: CC[C@]1(C)CC(OC(=O)NC(=O)c2cnc(N)s2)[C@]2(C)C(C)CC[C@]3(C[C@H](O)C(=O)C23)[C@@H](C)[C@@H]1O (stereo partly drawn) [Example 35, (2-Aminothiazol-5-ylcarbonyl)carbamic Acid 19,20-dihydro-2-(S)-hydroxymutilin 14-ester]

- MIC [2]: ≤ 4 µg/mL
- MIC [3]: ≤ 4 µg/mL
- MIC [4]: ≤ 4 µg/mL
- MIC [5]: ≤ 4 µg/mL
SMILES: CC[C@]1(C)C[C@@H](OC(=O)NC(=O)c2cccc(N)n2)[C@]2(C)C(C)CC[C@]3(C[C@H](O)C(=O)C32)[C@@H](C)[C@@H]1O (stereo partly drawn) [Example 32, (6-aminopyridin-2-ylcarbonyl)carbamic Acid 19,20-dihydro-2-(S)-hydroxymutilin 14-ester]
